According to patent publication US8129383B2, “Aminopterin dosage forms and methods for inflammatory disorders” (Aminopterin LLC, priority 2005, dated 2012):

How the values were obtained:
[1] = tested on: carrageenan-induced inflammation in air pouches; test: duration of efficacy in the murine air-pouch model after cessation of 4 weeks of dosing; type: in vivo, mice; settings: aminopterin 0.05 mg/kg, methotrexate 1.0 mg/kg
Protocol: We therefore examined the rate at which anti-inflammatory activity was lost in the air-pouch model after the cessation of 4 weeks of dosing at the maximally efficacious dose (FIG. 2).
On day 25 the air pouches were re-inflated with 1.5 ml of air. Pouches were re-inflated as needed to maintain them.

[2] = tested on: ma104 cells; settings: read-out: EC50 of adenosine release (prior art); Cronstein'91; cited from earlier work
[3] = tested on: neutrophils that accumulated in the carrageenan-treated air pouches; settings: weekly ip injection days 1, 7, 14, 21; carrageenan day 22, exudate after 4 hours
Protocol: J. Clin. Invest., 1993. 92(6):2675-82].
A separate group of 5 animals was given vehicle by ip injection on the same days (0.9% saline, control, n=5). On day 16, air pouches were induced on the animals by injecting 3 ml of air subcutaneously on the back. On day 22 (i.e. one day after the last dose of drug or vehicle), inflammation was induced by injection of 1 ml of a suspension of carrageenan (2% weight/volume in calcium- and magnesium-free PBS). The mice were put back in their cages and allowed to run free for 4 hours. […] After 4 hours, the animals were sacrificed, the pouches flushed with 2 ml of PBS and the exudates harvested. Aliquots were diluted 1:1 with methylene blue (0.01% w/v in PBS), and the cells were counted.

[4] = tested on: canine atopic dermatitis; settings: oral about 0.2 mg/kg/week
Protocol: […] Subjects were assessed at baseline and at weeks 2 and 4 of the trial, and every other week of the 1-year extension phase.
Subjects were assessed at baseline and at weeks 2 and 4.

[5] = tested on: influx of neutrophils (PMNs) in hyperoxia; test: rat oxygen-toxicity model of bronchopulmonary dysplasia; type: in vivo, rats; settings: single 0.35 mg/kg ip day 2 after birth, 95% oxygen, sacrifice day 8
Text: Mason, S, N.; Richard L. Auten, J. Lung inflammation in hyperoxia can be prevented by antichemokine treatment in newborn rats. American Journal of Respiratory Critical Care Medicine 2000, 162, 2316-2323]. […] Litter sizes were the same. […] Dams were rotated daily between air and oxygen cages to avoid maternal oxygen toxicity. On day 8, the pups were weighed and then euthanized, tracheas are cannulated and the pulmonary artery is perfused with saline. Bronchoalveolar lavage fluid (BALF) was then obtained for cell count and chemokine analysis (FIG. 3). The lungs were removed and snap frozen for myeloperoxidase activity assay (neutrophil accumulation within lung parenchyma) and 8-isoprostane, a marker of lipid oxidation. The pulmonary artery was perfused and the lungs were inflation-fixed with buffered formalin at 25 cm H2O.

## CN(Cc1cnc2nc(N)nc(N)c2n1)c1ccc(C(=O)N[C@@H](CCC(=O)O)C(=O)O)cc1 [methotrexate]
[1]; 8, 12 or 22 days after last of 4 weekly ip doses
  difference between aminopterin and methotrexate in rate of recovery of inflammation: no statistically significant difference
[1]; after last of 4 weekly ip doses
  duration of action: quite long
[2]
  EC50: ~1 nM
[3]
  EC50 for diminishing the number of neutrophils accumulated in carrageenan-treated air pouches: 0.04 mg/kg/wk
[4]; 4-week trial
  time to produce efficacy compared to aminopterin: took longer to produce efficacy compared to aminopterin
[4]; assessed at weeks 2 and 4
  outcome of the five treated dogs: Three dogs did not do well, one had not improved as of the last assessment and one dog improved markedly
[5]
  influx of neutrophils in bronchoalveolar lavage fluid: failed to reduce the influx of neutrophils
